Source: patent US7431936B2, “Proteins involved in cytoadhesion of plasmodium falciparum ring-stage-infected erythrocytes, antibodies which bind to the proteins, and methods for detecting infection, stage of infection and vaccines for protecting against infection” (Institut Pasteur, priority 2000, dated 2008)

Key:
[1] = tested on: ring-stage PA^CSA IE cytoadhesion to SBEC ID; experiment: Protease sensitivity of ring-stage IE cytoadhesion; type: cell-based, P. falciparum; settings: protease concentration of 100 μg/ml (FIG. 3C)
Procedure: The protease sensitivity of ring-stage IE cytoadhesion was analyzed using 5 μl of packed PA^CSA IE (8 hours post-invasion). IE were incubated with 10 or 100 μg/ml of trypsin TPCK (Signa) or 100 µg/ml of -chymotrypsin TLCK (Sigma) for 30 minutes at 37° C. The digestion was topped by adding culture medium containing 10% human plasma. The cells were then washed in cytoadhesion medium and allowed to cytoadhere to SBEC ID, as previously described, using untreated PA^CSA as a control.

[2] = tested on: ring-stage IE^CSA cytoadhesion to SBEC 1D; experiment: Cytoadhesion inhibition assay of IE^CSA on SBEC 1D; type: cell-based, P. falciparum; settings: for inhibitory effect on ring-stage IE binding to SBEC 1D: ring-stage PA^CSA IE 8 hours post-invasion, glycosaminoglycan present or target cells enzyme-treated (FIG. 2B), thrombospondin data not shown; for sensitivity of ring-stage IE^CSA cytoadhesion to inhibitor: 0.1 mg.ml of CSA, or prior treating of target cells with 1 U/ml Case ABC, until the 16th hour after invasion (FIG. 2A); for time after invasion at which inhibition was maximal: CSA and Case ABC tested every 4 hours throughout the cycle (FIG. 2A)
Procedure: Gelatin-enriched preparations of mature-stage IE were resuspended at a concentration of 5×10^6 IE/ml in cytoadhesion medium at pH 6.8. Cytoadhesion microassays were then performed on 12-well IFA slides (Institut Pasteur, Paris) as previously desribed^15.
Ring-stage cytoadhesion assays were performed with endothelial cells as described above and with placental cryosections as previously described^11, with 1 to 10% parasitaemia (a 1×10^7 IE/ml suspension).
For cytoadhesion inhibition assays, the IE were incubated with SBEC in the presence of 2.5 μg/ml thrombospondin, 0.1 mg/ml soluble CSA, dermatan sulphate (CSB), chondroitin-6-sulphate (CSC), keratin sulphate (Ker), byaluronic acid (HA), heparin (Hep) (Fluka, France), or with SBEC previously incubated for 1 hour at 37° C. with 1 U/ml Case (Fluka, France), 1 to 10 U/ml heparinase III (Hepase III (Sigma, France) or 5 μg/ml anti-CD36 FA6-152 Mab (gift from Dr. Edelman). Inhibition assays were also carried out in the presence of sera obtained from Senegalese and Cameroonian patients living in areas of endemic malaria. The sera were obtained from primigravida and multigravida women, an adult and a child, absorbed onto O^+ human blood and SBEC ID, and tested at a dilution of 1/20. The results were compared to those for cytoadhesion in the presence of a 1/20 dilution of a pool of control sera from volunteers who had never contacted malaria.

Molecule: -chymotrypsin
- inhibition of ring-stage IE adhesion after protease treatment of IE [1]: substantially inhibited

Molecule: Hyaluronic acid
- inhibitory effect on ring-stage IE binding to SBEC 1D [2]: no activity

Molecule: Thrombospondin: mature-stage IE adhesion receptor protein tested at 2.5 μg/ml
- inhibitory effect on ring-stage IE binding to SBEC 1D [2]: no effect

Molecule: chondroitin-sulphate A [CSA]
- sensitivity of ring-stage IE^CSA cytoadhesion to inhibitor [2]: insensitive
- time after invasion at which inhibition was maximal [2]: 24 h

Molecule: chondroitinase ABC [Case]
- sensitivity of ring-stage IE^CSA cytoadhesion to inhibitor [2]: insensitive
- time after invasion at which inhibition was maximal [2]: 24 h
- inhibitory effect on ring-stage IE binding to SBEC 1D [2]: no significant inhibitory activity

Molecule: dermatan-sulphate [CSB]
- inhibitory effect on ring-stage IE binding to SBEC 1D [2]: not specific

Molecule: heparin
- inhibition of ring-stage cytoadhesion ([2]; Heparin (100 m/ml) and heparinase, SBEC 1D (FIG. 2B)): about 50%

Molecule: hyaluronate lyase
- inhibitory effect on ring-stage IE binding to SBEC 1D [2]: low level of inhibitory activity

B1: trypsin: protease used to treat ring-stage IE (protein, UniProt P00760 24-246, looked up)
Serine protease 1: IVGGYTCGANTVPYQVSLNSGYHFCGGSLINSQWVVSAAHCYKSGIQVRLGEDNINVVEGNEQFISASKSIVHPSYNSNTLNNDIMLIKLKSAASLNSRVASISLPTSCASAGTQCLISGWGNTKSSGTSYPDVLKCLKAPILSDSSCKSAYPGQITSNMFCAGYLEGGKDSCQGDSGGPVVCSGKLQGIVSWGSGCAQKNKPGVYTKVCNYVSWIKQTIASN
modifications: TPCK-treated
notes: protease used to treat ring-stage IE
- inhibition of ring-stage IE adhesion after protease treatment of IE [1]: substantially inhibited
